# Measurements: patent US20040044077A1, “Agents for inhibiting or restoring skin damage caused by drying and method for evaluating the same” (priority 2000, published 2004)
# Assays:
# [1] = test system: filaggrin gene; assay: Expression level of the filaggrin gene (RT-PCR) in cultured human keratinocytes exposed to a gaseous phase (drying); format: cell-based; settings: drying stimulus; for Relative expression level of filaggrin gene (%) Mean: no treatment = 100
# Protocol: (§1) Normal keratinocytes of human preputial origin and 3T3 cells of mouse origin were used.
# (§2) The culture medium was DMEM-Ham's F12 (3:1) containing hydrocortisone, cholera enterotoxin, epidermal growth factor, insulin and 10% FBS.
# (§3) The keratinocytes were cultured according to the method described in Rheinwald et al., Cell, 6, 331-344(1975).
# (§4) An outline is given below. 3T3 cells were treated with mitomycin C and used as a feeder layer. Normal human keratinocytes (1×10^5 cells) were inoculated onto mitomycin C-treated 3T3 cells and cultured at 37° C. in a 95% air-5% carbon dioxide environment until they became confluent. They were exposed to a gaseous phase by removing the culture supernatant. Each test substance was added 30 minutes before exposed to a gaseous phase, followed by incubation at 37° C. The culture to which no test sample was added was used as a control. The exposure to a gaseous phase was carried out at 37° C. for 0-6 hours.
# After each test substance was added to the aforesaid culture system and the cells were exposed to a gaseous phase for a predetermined period of time, RNA was extracted from the cells according to the AGPC method. This RNA was subjected to RT-PCR in the following manner. A primer specific for fillaggrin was prepared on the basis of the base sequence of filaggrin which is reported in McKinley-Grant L. J. et al., Proc. Natl. Acad. Sci. U.S.A., 86, 4848-4852(1989). In order to assay mRNA for filaggrin, RT-PCR was carried out by converting mRNA to cDNA with the aid of reverse transcriptase. Using this cDNA as a template with the aforesaid primer, a polymerase reaction (a well-known reaction) was carried out. After the PCR product was electrophoresed in agarose gel, the resulting gel was soaked in an ethidium bromide solution and assayed for DNA. The quantitative analysis of DNA bands was carried out with NIH Image (analytical program). A correction was made with the aid of glyceraldehyde-3-phosphate dehydrogenase (G3PDH).
# (6-8) The efficacies of other active ingredients and combinations of active ingredients in inhibiting a reduction in the expression of the filaggrin gene in cultured human keratinocytes as induced by drying are shown in Tables 1 and 2 below, respectively. In these tables, the degree to which the addition of a drug inhibited a reduction in gene expression is expressed as a percentage, assuming that the gene expression before drying is 100% and the gene expression after drying is […]. In Table 1, each active ingredient was added at an extract concentration of 0.5%. In Table 2, compositions containing the indicated active ingredient(s) at the indicated concentration(s) (in % by weight) were tested.
# The aforesaid recovery rates (%) indicate the degree to which the addition of each test substance restored the expression level of the filaggrin gene as compared with that in the untreated group not exposed to a drying stimulus.
# [2] = test system: filaggrin protein; assay: Amount of filaggrin protein (western blotting) in cultured human keratinocytes exposed to a gaseous phase (drying); format: cell-based; settings: culture in the presence of 10% glycerol, FIG. 3
# Protocol: as §1, §2, §3, §4
# After each test substance was added to the aforesaid culture system and the cells were exposed to a gaseous phase for a predetermined period of time, protein was extracted from the cells. According to a conventional method, filaggrin protein or filaggrin protein precursor (profilaggrin) was determined by western blotting. An outline is given below. […] The quantitative analysis of bands was carried out with NIH Image (analytical program). […]
Compound,Recovery rate (%) ([1]; 0.15% by weight),Relative expression level of filaggrin gene (%) Mean ([1]; 0.15% by weight),Recovery rate (%) ([1]; 0.30% by weight),Relative expression level of filaggrin gene (%) Mean ([1]; 0.30% by weight),effect on reduction in filaggrin protein level induced by drying [2]
OCC(O)CO [glycerol],7.5%,51%,60.4%,79%,inhibiting a reduction in filaggrin protein level
OC[C@@H](O)[C@H](O)[C@@H](O)CO [xylitol],5.7%,50%,37.7%,67%,–
